The target in one assay is T1, Arginase (Homo sapiens, UniProt P05089).
T1 construct: Arginase protein was recombinantly expressed in Escherichia coli
T1 sequence (P05089 1-322): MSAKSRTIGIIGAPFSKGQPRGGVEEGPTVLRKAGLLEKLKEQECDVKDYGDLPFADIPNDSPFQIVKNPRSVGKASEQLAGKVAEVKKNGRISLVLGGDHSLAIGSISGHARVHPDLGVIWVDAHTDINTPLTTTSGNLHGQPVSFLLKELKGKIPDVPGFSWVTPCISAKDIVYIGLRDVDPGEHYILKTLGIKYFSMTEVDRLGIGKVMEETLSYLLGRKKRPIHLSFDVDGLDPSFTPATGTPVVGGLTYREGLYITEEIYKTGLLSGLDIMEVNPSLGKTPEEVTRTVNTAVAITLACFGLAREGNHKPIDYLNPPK
As to the kind of experiment: Arginase Thioornithine Generating Assay (TOGA). It is filed as biochemical. The conditions noted are these: for inhibition at 100 µM: Top Dose 100000 nM; for IC50: recombinant arginase 1.88 nM, thioarginine substrate. The procedure:
Arginase Thioornithine Generating Assay (TOGA)
Compounds were serially diluted in ten 3-fold steps in DMSO starting from 10 mM DMSO stocks. Compound dilutions or DMSO alone were then dispensed from the dilution plate into a Greiner black 384-well assay plate (catalog #781086) using an Echo 555 acoustic liquid handler (Labcyte).
Arginase protein was recombinantly expressed in Escherichia coli. Purified protein was then diluted in assay buffer (50 mM Tris pH 7.5, 50 mM NaCl, 1 mM manganese chloride, 0.05% bovine serum albumin to obtain a final Arginase concentration of 1.88 nM. Arginase solution (20 μL) or buffer alone (20 μL) were dispensed to wells of the assay plate using a BioRAPTR liquid dispenser (Beckman Coulter). Assay plates containing compound and arginase enzyme were incubated at room temperature for 30 minutes. Afterwards, 5 μL of 2.5 mM thioarginine (Cayman Chemicals) in assay buffer were added to each well of the assay plate using a BioRAPTR liquid dispenser. Plates were incubated at room temperature for 60 minutes and reactions were quenched by addition of 15 μL of 200 uM 7-Diethylamine-3-(4-maleimidophenyl)-4-methylcoumarin (Sigma Chemical) in 70% ethanol. Plates were briefly shaken to mix and the fluorescence was measured in an Spectramax plate reader (Molecular Devices) with a 410 nm excitation wavelength and an 490 nm emission wavelength.
Potencies were calculated by […] to the four parameter logistic IC50 equation.

The test system of assay [1] is corpus cavernosum of the diabetic person. The conditions noted are these: ex vivo; cited from earlier work.
A further assay deals with guinea pigs. Conditions: nebulizer treatment, allergic asthma model; cited from earlier work.
Assay [2] has as its system experimental autoimmune encephalomyelitis. Conditions: cited from earlier work.
The test system of assay [3] is rabbit and human penile corpus cavernosum. Conditions: cited from earlier work.
Assay [4] concerns opossum internal anal sphincter muscle. Conditions: cited from earlier work.
The next assay concerns live male rabbits. Conditions: cited from earlier work.
The subject of a further assay is live female rabbits. Conditions: cited from earlier work.
[5] abbreviates: Top Dose 10000 nM, read-out: Percent Inhibition at Top Dose.
Setting [6] is: read-out: Percent Inhibition at Top Dose.

Where a name gives a salt, the structure may show the parent alone. Read-outs that look alike come from different tables or passages of the source.

Regarding `CN(C)C[C@]12C[C@H]1CC(CCCB(O)O)C2(N)C(=O)O` (stereo partly drawn) [Example 33a, (1S,5R)-2-amino-3-(3-boronopropyl)-1-((dimethylamino)methyl)bicyclo[3.1.0]hexane-2-carboxylic acid], the inhibition (usually how much of the control response was suppressed) at 10 µM on Arginase (setting [5]) was 62.7%.
Still for that read-out and setting: the figure for `N[C@H]1C[C@@H]2C[C@@](N)(C(=O)O)[C@@H](CCCB(O)O)[C@@H]2C1` [Example 45, (1S,2S,3aR,5S,6aR)-2,5-diamino-1-(3-boronopropyl)octahydropentalene-2-carboxylic acid] is 99.4%.
On to `C[C@H](N)C(=O)N1CCCC12CCC(N)(C(=O)O)C(CCCB(O)O)C2` (stereo partly drawn) [Example 26, 8-amino-1-((S)-2-aminopropanoyl)-7-(3-boronopropyl)-1-azaspiro[4.5]decane-8-carboxylic acid hydrochloride], for which the inhibition at 10 µM at Arginase (read-out: Percent Inhibition at Top Dose, Top Dose 10000 nM) turned out to be 45.2%.
As for `NC1(C(=O)O)C[C@H]2CNC[C@H]2C1CCCB(O)O` (relative stereo) [Example 1, (3aR,6aR-rel-)-5-amino-4-(3-boronopropyl)octahydrocyclopenta[c]pyrrole-5-carboxylic acid], the inhibition at 100 µM on Arginase (setting [6]) came out at 99.4%.
As for `NC1(C(=O)O)CC2CN(S(N)(=O)=O)CC2C1CCCB(O)O` (single isomer, unassigned) [Example 18a, 5-amino-4-(3-boronopropyl)-2-sulfamoyloctahydrocyclopenta[c]pyrrole-5-carboxylic acid], the inhibition at 10 µM at Arginase (setting [5]) came out at 100%.
Same read-out and setting: then `CC(C)N1C[C@@H]2C[C@@](N)(C(=O)O)[C@@H](CCCB(O)O)[C@@H]2C1` [Example 8, (3aR,4S,5S,6aR)-5-amino-4-(3-boronopropyl)-2-isopropyloctahydrocyclopenta[c]pyrrole-5-carboxylic acid], with 74.8%.
With “(1S,2S,3aR,4S,5R,6aS)-2-amino-1-(3-boronopropyl)-4-fluoro-5-(methylamino)octahydropentalene-2-carboxylate [Example 55a]”, at Arginase (Top Dose 10000 nM), the “Percent Inhibition at Top Dose” value is given as 103.1%. Moreover, the half-inhibitory concentration (IC50) – broadly, the concentration needed to halve the response being measured – on Arginase was found to be 23.2 nM.
In the case of `NC1(C(=O)O)C2CNC(C2)C1CCCB(O)O` (centres unmarked) [Example 24, 5-amino-6-(3-boronopropyl)-2-azabicyclo[2.2.1]heptane-5-carboxylic acid], the inhibition at 100 µM on Arginase (setting [6]) is 95.9%.
Take `N[C@@]1(C(=O)O)C[C@H]2CN(Cc3ccc(F)cc3)C[C@H]2[C@@H]1CCCB(O)O` [Example 3, (3aR,4S,5S,6aR)-5-amino-4-(3-boronopropyl)-2-(4-fluorobenzyl)octahydrocyclopenta[c]pyrrole-5-carboxylic acid]: the inhibition at 10 µM on Arginase (setting [5]) is 99.8%.
Still for that read-out and setting: then `CN[C@@]1(C(=O)O)C[C@H]2CNC[C@H]2[C@@H]1CCCB(O)O` [Example 22, (3aR,4S,5S,6aR)-4-(3-boronopropyl)-5-(methylamino)octahydrocyclopenta[c]pyrrole-5-carboxylic acid], with 93.9%.
`N[C@@H](CCCCB(O)O)C(=O)O` [ABH, (S)-2-amino-6-boronohexanoic acid]: the nitric oxide biosynthesis result in assay [1] is given as “restores nitric oxide biosynthesis”. In addition, the airway hyperresponsiveness entry with guinea pigs is reported as “prevents airway hyperresponsiveness”. The disease score result in assay [2] was “improves the disease score of animals”. Besides, the “nitric oxide-dependent relaxation of corpus cavernosum” value in assay [3] was “enhances the nitric oxide-dependent relaxation of this tissue”. Also, in assay [4], the “relaxation of internal anal sphincter muscle” value is on record as “relax this muscle”. For the same compound, the erectile response entry in the assay with live male rabbits is given as “enhances the erectile response”. Besides, the “engorgement response in the genitalia” value in the assay with live female rabbits was “enhances the engorgement response”.
In the case of “(1S,2S,3aR,5R,6R,6aR)-2-amino-1-(3-boronopropyl)-6-fluoro-5-(methylamino)octahydropentalene-2-carboxylate [Example 53b]”, the “Percent Inhibition at Top Dose” value on Arginase (Top Dose 10000 nM) amounted to 100%. Also, the IC50 on Arginase was determined as 6.93 nM.
Regarding `NC1(C(=O)O)CC2(CNC2)CC1CCCB(O)O` (single isomer, unassigned) [Example 35c, 6-amino-7-(3-boronopropyl)-2-azaspiro[3.4]octane-6-carboxylic acid], the inhibition at 10 µM at Arginase (setting [5]) stood at 82.3%.
The same measure, in the same setting: then `CC1NC[C@@H]2[C@H]1CC(N)(C(=O)O)[C@H]2CCCB(O)O` (stereo partly drawn) [Example 31a, (3aR,4S,6aR)-5-amino-4-(3-boronopropyl)-1-methyloctahydrocyclopenta[c]pyrrole-5-carboxylic acid], with 89.9%.
For `N[C@@H](CO)C(=O)N1C[C@@H]2C[C@@](N)(C(=O)O)[C@@H](CCCB(O)O)[C@@H]2C1` [Example 6, (3aR,4S,5S,6aR)-2-(L-seryl)-5-amino-4-(3-boronopropyl)octahydrocyclopenta[c]pyrrole-5-carboxylic acid], the inhibition at 10 µM on Arginase (setting [5]) stood at 94.2%. The 50% inhibitory concentration (IC50) on Arginase came to 179 nM.
On to “(1S,2S,3aS,5S,6R,6aR)-2-amino-1-(3-boronopropyl)-6-fluoro-5-hydroxyoctahydropentalene-2-carboxylate [Example 52a]”, for which the “Percent Inhibition at Top Dose” value at Arginase (Top Dose 10000 nM) is 96.25%. The IC50 at Arginase amounted to 220 nM.
As to `NC1(C(=O)O)C(CCCB(O)O)C[C@H]2CNC[C@H]21` (mixture of isomers) [Example 28, rac-(3aS,6aR)-4-amino-5-(3-boronopropyl)octahydrocyclopenta[c]pyrrole-4-carboxylic acid], on Arginase (setting [5]), the inhibition at 10 µM was 90.4%.
On the same count and under the same terms, then `N[C@@]1(C(=O)O)C[C@H]2CNC(=O)[C@H]2[C@@H]1CCCB(O)O` (single isomer, unassigned) [Example 23b], with 38.8%.
As to `CC(=O)N1C[C@@H]2C[C@@](N)(C(=O)O)[C@@H](CCCB(O)O)[C@@H]2C1` [Example 7, (3aR,4S,5S,6aR)-2-acetyl-5-amino-4-(3-boronopropyl)octahydrocyclopenta[c]pyrrole-5-carboxylic acid], the inhibition at 10 µM at Arginase (setting [5]) was found to be 72.8%.

The values are drawn from US11274111B2, “Arginase inhibitors and methods of use” (Merck Sharp & Dohme Corp., priority 2018, dated 2022).
